≈ marks a conversion by molar mass, not a printed value.
Key:
[1] = test system: Enterococcus faecalis (ATCC 29212); experiment: broth microdilution MIC (CLSI M07-A9), resazurin; assay type: cell-based; details: ATCC29212, 24 h
Experimental: (§1) Microbiological studies were performed according to following guides: CLSI reference […]-A9 broth microdilution method[49] for bacterial strains and EUCAST definitive (EDef 7.1) method[50] for Candida species. Synthesized compounds were tested for their in vitro growth inhibitory activity against Staphylococcus aureus (ATCC 25923), Enterococcus faecalis (ATCC 29212), Listeria monocytogenes (ATCC 1911), Klebsiella pneumoniae (NCTC 9633), Escherichia coli (ATCC 35218), E. coli (ATCC 25922) Candida albicans (ATCC 24433) Candida krusei (ATCC 6258) and Candida parapsilosis (ATCC 22019). Chloramphenicol and ketoconazole were used as control drugs. The cultures were obtained from the Mueller-Hinton broth (Difco) for the bacterial strains after overnight incubation at 37 °C. The yeasts were maintained in Roswell Park Memorial Institute (RPMI) after overnight incubation at 37 °C. […] Testing was carried out in Mueller-Hinton broth and RPMI at pH =7, and the two-fold serial dilutions technique was applied. The last well on the microplates containing only inoculated broth was kept as controls and the last well with no growth of microorganism was recorded to represent the minimum inhibitory concentration (MIC) expressed in μg/mL. For both the antibacterial and antifungal assays, the compounds were dissolved in DMSO. […] The completed plates were incubated for 24 h. At the end of the incubation, resazurin (20 μg/mL) was added into each well and plates were incubated for 2 h. MIC values were determined using a microplate reader at […]. Synthesized compounds (6a-6m) were evaluated for antimicrobial activity against various microorganisms such as Staphylococcus aureus (ATCC 25923), Enterococcus faecalis (ATCC 29212), Listeria monocytogenes (ATCC 1911), Klebsiella pneumoniae (NCTC 9633), Escherichia coli (ATCC 35218), E. coli (ATCC 25922)Candida albicans (ATCC 24433) Candida krusei (ATCC 6258) and Candida parapsilosis (ATCC 22019). […] Chloramphenicol and ketoconazole were used as standard drugs in the activity test. […] Besides, the compounds 6d, 6h, 6l and 6m indicated stronger antibacterial activity than the other compounds in the series.

[2] = test system: Listeria monocytogenes (ATCC 1911); experiment: broth microdilution MIC (CLSI M07-A9), resazurin; assay type: cell-based; details: ATCC1911, 24 h
Experimental: as §1

[3] = test system: Escherichia coli (ATCC 25922); experiment: broth microdilution MIC (CLSI M07-A9), resazurin; assay type: cell-based; details: ATCC25922, 24 h, read-out: MIC Ec-2
Experimental: as §1

[4] = test system: Staphylococcus aureus (ATCC 25923); experiment: broth microdilution MIC (CLSI M07-A9), resazurin; assay type: cell-based; details: ATCC25923, 24 h
Experimental: as §1

[5] = test system: Escherichia coli (ATCC 35218); experiment: broth microdilution MIC (CLSI M07-A9), resazurin; assay type: cell-based; details: ATCC35218, 24 h, read-out: MIC Ec-1
Experimental: as §1

[6] = test system: Klebsiella pneumoniae (NCTC 9633); experiment: broth microdilution MIC (CLSI M07-A9), resazurin; assay type: cell-based; details: 24 h
Experimental: as §1

[7] = test system: Candida albicans (ATCC 24433); experiment: broth dilution MIC (EUCAST EDef 7.1), resazurin; assay type: cell-based; details: ATCC24433, 24 h
Experimental: as §1

[8] = test system: Candida parapsilosis (ATCC 22019); experiment: broth dilution MIC (EUCAST EDef 7.1), resazurin; assay type: cell-based; details: ATCC22019, 24 h
Experimental: as §1

[9] = test system: Candida krusei (ATCC 6258); experiment: broth dilution MIC (EUCAST EDef 7.1), resazurin; assay type: cell-based; details: Pichia kudriavzevii, ATCC6258, 24 h
Experimental: as §1

COX-1 = molecular target: T1, COX-1 (Ovis aries, UniProt P05979); experiment: fluorometric COX-1 inhibitor screening kit assay; assay type: biochemical; details: for SI (selectivity index): IC50 (COX-1)/IC50 (COX-2); for IC50: fluorometric kit, 25 °C; for Selectivity: isoform preferred according to SI
T1 construct: purchased Biovision K548-100
T1 sequence (P05979 25-600): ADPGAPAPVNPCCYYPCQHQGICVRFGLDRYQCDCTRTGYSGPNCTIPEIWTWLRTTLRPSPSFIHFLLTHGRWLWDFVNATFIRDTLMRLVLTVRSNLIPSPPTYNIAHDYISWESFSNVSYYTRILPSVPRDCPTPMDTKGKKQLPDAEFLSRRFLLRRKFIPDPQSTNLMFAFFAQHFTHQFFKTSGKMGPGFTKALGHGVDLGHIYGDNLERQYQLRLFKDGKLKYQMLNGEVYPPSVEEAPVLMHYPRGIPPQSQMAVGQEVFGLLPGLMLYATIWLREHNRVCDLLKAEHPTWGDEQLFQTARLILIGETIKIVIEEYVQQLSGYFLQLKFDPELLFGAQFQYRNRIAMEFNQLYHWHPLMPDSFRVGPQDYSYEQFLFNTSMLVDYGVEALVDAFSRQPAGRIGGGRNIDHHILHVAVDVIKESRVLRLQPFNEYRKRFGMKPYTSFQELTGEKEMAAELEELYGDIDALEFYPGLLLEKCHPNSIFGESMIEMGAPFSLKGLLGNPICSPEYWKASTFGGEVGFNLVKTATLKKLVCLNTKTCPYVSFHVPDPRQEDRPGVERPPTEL
Experimental: (§2) Inhibitory potency of the compounds against COX-1 and COX-2 enzymes was determined using fluorometric COX-1 and COX-2 inhibitor screening kits (Biovision, Zurich, Switzerland). Experimental protocol was followed as described in the guides of the supplier[47]^,[48]. All of the pipettings in the assay were performed by Biotek Precision robotic system (BioTek Instruments, Inc., Winooski, VT). […] Appropriate two points (T1 and T2) in the linear range of the plot were chosen, and the corresponding fluorescence values (RFU1 and RFU2) were obtained. The slope for all samples, including enzyme control (EC), by dividing the net ΔRFU (RFU2–RFU1) values by the time ΔT (T2–T1) were calculated by using following equation: % Relative inhibition=(Slope of EC-Slope of S/Slope of EC)×100
(§3) This initial in vitro assay was done with two concentrations (10^−3 and 10^−4 M) for all compounds. […] The IC50 value was calculated from the plots of enzyme activity against concentrations by applying regression analyses on GraphPad Prism Version 5 (GraphPad Software, La Jolla, CA).
(§4) Selectivity indexes (SI) were expressed as IC50 (COX-1)/IC50 (COX-2). Selectivity toward COX-2 decreases as the corresponding SI decreases while selectivity toward COX-1 isoform increases as the corresponding SI decreases.

COX-2 = molecular target: T2, COX-2 (Homo sapiens, UniProt P35354); experiment: fluorometric COX-2 inhibitor screening kit assay; assay type: biochemical; details: 25 °C
T2 construct: purchased Biovision K547-100
T2 sequence (P35354 18-604): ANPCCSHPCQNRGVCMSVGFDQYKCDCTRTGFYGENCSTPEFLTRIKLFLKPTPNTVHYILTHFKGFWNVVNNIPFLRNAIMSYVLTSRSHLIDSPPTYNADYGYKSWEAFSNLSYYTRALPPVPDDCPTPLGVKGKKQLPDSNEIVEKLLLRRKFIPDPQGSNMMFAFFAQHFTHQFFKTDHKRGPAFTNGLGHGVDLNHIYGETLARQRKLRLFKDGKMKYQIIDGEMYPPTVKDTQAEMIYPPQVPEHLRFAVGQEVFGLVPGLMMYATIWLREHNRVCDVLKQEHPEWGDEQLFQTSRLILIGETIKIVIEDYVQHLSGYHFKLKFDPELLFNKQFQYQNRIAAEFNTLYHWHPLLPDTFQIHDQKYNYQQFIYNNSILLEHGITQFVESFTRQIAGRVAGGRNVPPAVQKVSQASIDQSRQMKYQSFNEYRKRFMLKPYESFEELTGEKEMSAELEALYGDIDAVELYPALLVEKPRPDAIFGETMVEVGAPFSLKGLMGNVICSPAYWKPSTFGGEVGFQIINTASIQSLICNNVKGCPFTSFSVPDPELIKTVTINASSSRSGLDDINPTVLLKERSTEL
Experimental: as §2, §3, §4

MTT cytotoxicity test = details: mouse
Experimental: NIH/3T3 cells were incubated according to the supplier’s recommendations. NIH/3T3 cells were seeded at 1 × 10^4 cells into each well of 96-well plates. MTT assay was performed as previously described[51]^,[52].
There are a number of requirements to be fulfilled for successful new drug development. […] This assay is based upon the reduction of yellow MTT dye by metabolically active eukaryotic and prokaryotic cells to form the purple formazan product. The assay is generally used to examine cell viability and to estimate cell culture growth[66]^,[67].

Row | Compound | MIC [1] [µg/mL] | MIC [2] [µg/mL] | MIC [3] [µg/mL] | MIC [4] [µg/mL] | MIC [5] [µg/mL] | MIC Kp [6] [µg/mL] | MIC [7] [µg/mL] | MIC [8] [µg/mL] | MIC [9] [µg/mL] | SI (selectivity index) (COX-1) | IC50 (COX-1) [µM] | Selectivity (COX-1) | melting point [°C] | IC50 (COX-2) [µM] | IC50 (MTT cytotoxicity test) [µM]
1 | CC(C(=O)O)c1ccc(CSc2nc3ccccc3[nH]2)cc1 (centres unmarked) [Compound 6i, 2-(4-(((1H-benzo[d]imidazol-2-yl)thio)methyl)phenyl)propanoic acid] | 12.5 (≈ 40 µM) | 12.5 (≈ 40 µM) | 12.5 (≈ 40 µM) | 12.5 (≈ 40 µM) | 6.25 (≈ 20 µM) | 6.25 (≈ 20 µM) | 100 (≈ 320 µM) | 50 (≈ 160 µM) | 100 (≈ 320 µM) | 0.62 | 5.9 | COX-1 | 208.7 to 210.9 | 9.56 | –
2 | Cc1ccc2[nH]c(SCc3ccc(C(C)C(=O)O)cc3)nc2c1 (centres unmarked) [Compound 6j, 2-(4-(((5-Methyl-1H-benzo[d]imidazol-2-yl)thio)methyl)phenyl)propanoic acid] | 12.5 (≈ 38.3 µM) | 12.5 (≈ 38.3 µM) | 12.5 (≈ 38.3 µM) | 12.5 (≈ 38.3 µM) | 6.25 (≈ 19.1 µM) | 6.25 (≈ 19.1 µM) | 100 (≈ 306 µM) | 50 (≈ 153 µM) | 100 (≈ 306 µM) | 0.58 | 4.4 | COX-1 | 209.1 to 211.6 | 7.53 | –
3 | CC(C(=O)O)c1ccc(CSc2nc3cc(Cl)ccc3[nH]2)cc1 (centres unmarked) [Compound 6k, 2-(4-(((5-Chloro-1H-benzo[d]imidazol-2-yl)thio)methyl)phenyl)propanoic acid] | 12.5 (≈ 36 µM) | 12.5 (≈ 36 µM) | 12.5 (≈ 36 µM) | 12.5 (≈ 36 µM) | 6.25 (≈ 18 µM) | 6.25 (≈ 18 µM) | 50 (≈ 144 µM) | 50 (≈ 144 µM) | 50 (≈ 144 µM) | 0.63 | 3.71 | COX-1 | 208.8 to 211.5 | 5.91 | –
4 | CC(C(=O)O)c1ccc(CSc2nc3cc([N+](=O)[O-])ccc3[nH]2)cc1 (centres unmarked) [Compound 6m, 2-(4-(((5-Nitro-1H-benzo[d]imidazol-2-yl)thio)methyl)phenyl)propanoic acid] | 6.25 (≈ 17.5 µM) | 12.5 (≈ 35 µM) | 6.25 (≈ 17.5 µM) | 6.25 (≈ 17.5 µM) | 6.25 (≈ 17.5 µM) | 6.25 (≈ 17.5 µM) | 50 (≈ 140 µM) | 50 (≈ 140 µM) | 50 (≈ 140 µM) | 0.52 | 4.48 | COX-1 | 176.5 to 178.7 | 8.66 | –
5 | CC(C)Cc1ccc(C(C)C(=O)O)cc1 (centres unmarked) [Ibuprofen, reference compound] | – | – | – | – | – | – | – | – | – | – | – | – | – | – | ≥ 1000
6 | CS(=O)(=O)Nc1ccc([N+](=O)[O-])cc1Oc1ccccc1 [Nimesulide, reference compound] | – | – | – | – | – | – | – | – | – | – | 4.28 | – | – | – | ≥ 1000

Reference: PMC6445163, “Design, synthesis, and evaluation of novel 2-phenylpropionic acid derivatives as dual COX inhibitory-antibacterial agents” (Journal of Enzyme Inhibition and Medicinal Chemistry, 2017)
